From US7282522B2, “Hydroxamic acid derivatives and the method for preparing thereof” (Amorepacific Corporation, priority 2003, dated 2007)

Experiments:
rabbits = experiment: Primary skin irritation test on animals (Draize P.I.I.); conditions: depilated back; for P.I.I. (Primary Irritation Index): 0.5 ml of 1% solution in 1,3-butylene glycol:ethanol 7:3, observed 24 or 72 hours later; for Evaluation (skin irritation): 1% solution, according to Draize's P.I.I.
Method: Test was performed using fifty-six (56) of healthy male rabbits whose backs were depilated. […] 0.5ml of the test sample solution was applied to the right site of 2.5 cm×2.5 cm region on each of the depilated back. Left site with no sample treated was compared as a control. 24 hours or 72 hours later, skin abnormality such as erythema, crust and edema was observed.
Based on the score of skin response, skin irritation was evaluated according to Draize's P.I.I.(Primary Irritation Index) and compared with retinoic acid.

RARγ = molecular target: T1, RARγ (Homo sapiens, UniProt P13631); experiment: RARE-luciferase reporter assay in transfected CV-1 cells (affinity to retinoic acid receptor), RARγ; format: cell-based; conditions: treated 24 hours at final concentration 10^−4M, control group 5000
T1 construct: expressed in transfected cells; host or cells: CV-1 cells (ATCC)
T1 sequence (P13631 1-454): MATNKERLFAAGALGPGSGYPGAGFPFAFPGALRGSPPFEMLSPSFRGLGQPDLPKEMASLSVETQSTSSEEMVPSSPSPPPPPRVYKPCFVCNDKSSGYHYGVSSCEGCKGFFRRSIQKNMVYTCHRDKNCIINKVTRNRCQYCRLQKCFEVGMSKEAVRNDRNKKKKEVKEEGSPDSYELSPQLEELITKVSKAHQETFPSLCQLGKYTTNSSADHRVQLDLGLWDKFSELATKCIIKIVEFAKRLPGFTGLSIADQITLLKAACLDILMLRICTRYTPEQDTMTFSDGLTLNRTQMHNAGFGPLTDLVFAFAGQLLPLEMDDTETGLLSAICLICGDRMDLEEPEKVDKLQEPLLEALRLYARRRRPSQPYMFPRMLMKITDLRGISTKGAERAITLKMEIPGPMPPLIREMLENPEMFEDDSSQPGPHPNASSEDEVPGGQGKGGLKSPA
Method: (§1) Receptor-expression plasmid, pECE-RARα and pECE-RARγ were engineered by the prior method (Mol. Cell. Biol. 1996, 16, 1138-1149). RARE-tk-Luc, i.e. RARE reporter was obtained by inserting RARE fragment from b-RARE-tk-CAT into pGL3 luciferase basic vector. CV-1 cells were obtained from ATCC (American Type Culture Collection).
(§2) CV-1 cells were seeded into 96-well microtiter plate at 5,000 cells per well and cultured in DMEM (Dulbecco's Modified Eagle's Media) supplemented with 2.5% fetal bovine serum. 24 Hours later, the cells were transfected with 10 ng of pECE-RARα, long of pECE-RARγ, 100 ng of reporter plasmid and 100 ng of β-galactosidase-expression vector, using LipofectaminPlus (GIBCO BRL, grand island, N.Y.).

collagenase = experiment: Inhibition of collagenase expression in human fibroblasts (ELISA kit); format: cell-based; conditions: 10^−4M, 24 hours, serum-free medium, relative to control group = 100
Method: Human fibroblasts were seeded into 96-well microtiter plate at 5,000 cells per well and then cultured to 90% of growth in DMEM (Dulbecco's Modified Eagle's Media) supplemented with 2.5% fetal bovine serum. Then, the fibroblastes were cultured in serum-free DMEM for 24 hours and treated for 24 hours with 10^−4M of hydroxamic acid derivatives of Examples 1˜55, retinol or retinoic acid in serum-free medium, and then the culture fluid was collected.
(§3) For each culture fluid, collagenase production was measured with collagenase kit (commercialized by AmershamPharmacia Biotech). Firstly, the culture fluid was added to 96-well plate spread with primary collagenase antibody and then antigen-antibody reaction was performed in an incubator for 3 hours. Later, chromophore-conjugated secondary antibody was added to the 96-well plate and then reacted for 15 minutes. Then, color former was added thereto, to induce development at room temperature for 15 minutes. 1M of sulfuric acid was added to stop the reaction. […] The color density depends on the progress of the reaction. The absorbance of the yellow 96-well plate was measured at 405 nm using absorptiometer. Collagenase expression was calculated by the following equation 1. Herein, the absorbance of the culture fluid collected from the medium with no material treated was used as a control. Collagenase expression (%)=(Absorbance of test group with said material treated/Absorbance of control group with no material treated)×100 [Equation 1]
Collagenase expression was evaluated as a relative value, in consideration that the value of control group with no material treated is 100.

RARα = molecular target: T2, RARα (Homo sapiens, UniProt P10276); experiment: RARE-luciferase reporter assay in transfected CV-1 cells (affinity to retinoic acid receptor), RARα; format: cell-based; conditions: treated 24 hours at final concentration 10^−4M, control group 1000
T2 construct: expressed in transfected cells; host or cells: CV-1 cells (ATCC)
T2 sequence (P10276 1-462): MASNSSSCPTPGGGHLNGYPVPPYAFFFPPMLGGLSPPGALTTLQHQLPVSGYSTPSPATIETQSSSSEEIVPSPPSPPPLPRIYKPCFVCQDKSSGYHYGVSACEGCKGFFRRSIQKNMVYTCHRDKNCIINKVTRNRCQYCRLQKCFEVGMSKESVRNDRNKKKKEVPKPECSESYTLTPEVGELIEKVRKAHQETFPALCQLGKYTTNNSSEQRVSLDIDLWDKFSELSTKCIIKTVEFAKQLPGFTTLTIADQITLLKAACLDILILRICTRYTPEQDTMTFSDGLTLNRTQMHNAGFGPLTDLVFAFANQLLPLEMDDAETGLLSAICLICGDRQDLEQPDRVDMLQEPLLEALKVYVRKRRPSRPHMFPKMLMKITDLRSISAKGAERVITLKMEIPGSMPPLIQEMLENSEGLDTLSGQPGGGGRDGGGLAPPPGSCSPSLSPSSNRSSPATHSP
Text: This example illustrates affinities of hydroxamic acid derivatives obtained in Examples 1 to 55 to retinoic acid receptor, in comparison with retinol and retinoic acid.
as §1
as §2, with “N.Y.). 24 Hours post-transfection, the cells were treated for 24 hours with hydroxamic acid derivatives of Examples 1˜55 or retinol at a final concentration of 10^−4M or with retinoic acid at a final concentration of 10^−5M, which is 10 times lower concentration than those of the former.” for “N.Y.).”

white guinea pigs = experiment: Phototoxicity test (UVA irradiation); conditions: for Evaluation (phototoxicity): 1%(w/v) solution, UVA 15 J/cm^2; for Phototoxic index: 50 μl of 1%(w/v) solution, UVA 320~380 nm 15 J/cm^2, observed 24, 48 and 72 hours
Method: Test was performed for twenty-five (25) of white guinea pigs whose backs were depilated and fixed. On both sides of the back, six(6) sites of 2 cm×2 cm, three(3) per side were sectioned. Right sites were compared as controls with no irradiation (UV non-irradiation sites) and left sites were irradiated (UV irradiation sites).
30 Minutes later, right sites were shielded with aluminum foil and UVA(320˜380 nm) was irradiated at a distance of about 10 cm therefrom using Waldmann to the final energy of 15 J/cm^2. After 24, 48 and 72 hours elapsed, skin response of guinea pig was observed. […] Evaluation was estimated for each elapsed time, i.e. 24, 48 and 72 hours and maximum scores were selected, to calculate irritation index by the following equation 3. Then, phototoxic index was calculated by the following equation 4. Irritation index=(ΣMaximum of erythema+ΣMaximum of edema)/Number of animals [Equation 3] Phototoxic index=(Irritation index of UV irradiation site)−(Irritation index of UV non-irradiation site) Equation 4]

procollagen type I = experiment: Effect on collagen biosynthesis (procollagen type I ELISA) in human fibroblasts; format: cell-based; conditions: 10^−4M, 24 hours, serum-free medium, relative to control group = 100
Method: Human fibroblasts were seeded into 24-well plate at 1×10^5 cells per well and then cultured to 90% of growth.
For each supernatant, procollagen production was measured with procollagen type I ELISA kit.

elastase = experiment: Inhibition of elastase expression in human fibroblasts (ELISA kit); format: cell-based; conditions: 10^−4M, 24 hours, serum-free medium, relative to control group = 100
Method: as §3, with “elastase” for “collagenase”, “Elastase” for “Collagenase”, “2.” for “1.”, “2]” for “1]”
Elastase expression was evaluated as a relative value, in consideration that the value of control group with no material treated is 100.

| Compound | P.I.I. (Primary Irritation Index) (rabbits) | Evaluation (skin irritation) (rabbits) | Luciferase activity RARγ (RARγ) | Collagenase expression (%) (collagenase) | Luciferase activity RARα (RARα) | Evaluation (phototoxicity) (white guinea pigs) | Phototoxic index (white guinea pigs) | Collagen biosynthesis (%) (procollagen type I) | Elastase expression (%) (elastase) |
| --- | --- | --- | --- | --- | --- | --- | --- | --- | --- |
| Cc1ccc(C(=O)Nc2ccc(C(=O)NO)cc2)cc1C [Example 9, N-[4-(N-hydroxycarbamoyl)phenyl][3,4-dimethylphenyl]carboxyamide] | 0.470 | No irritation | 12000 | 65% | 12000 | No phototoxicity (lower value than 0.5, criterion value to be estimated as no phototoxicity) | 0 | 120% | 67% |
| CCc1ccc(C(=O)Nc2ccc(C(=O)NO)cc2)cc1 [Example 4, N-[4-(N-hydroxycarbamoyl)phenyl][4-ethylphenyl]carboxyamide] | 0.350 | No irritation | 12300 | 78% | 12000 | No phototoxicity (lower value than 0.5, criterion value to be estimated as no phototoxicity) | 0 | 119% | 70% |
| CCc1ccc(NC(=O)c2ccc(C(=O)NO)cc2)cc1 [Example 37, [4-(N-hydroxycarbamoyl)phenyl]-N-[4-ethylphenyl]carboxyamide] | 0.456 | No irritation | 10300 | 70% | 19000 | No phototoxicity (lower value than 0.5, criterion value to be estimated as no phototoxicity) | 0 | 121% | 80% |
| CCCCc1ccc(N(C)C(=O)c2ccc(C(=O)NO)cc2)cc1 [Example 51, [4-(N-hydroxycarbamoyl)phenyl]-N-methyl-N-[4-butylphenyl]carboxyamide] | 0.331 | No irritation | 12210 | 76% | 13400 | No phototoxicity (lower value than 0.5, criterion value to be estimated as no phototoxicity) | 0 | 121% | 77% |
| Cc1ccc(C(=O)N(C)c2ccc(C(=O)NO)cc2)cc1C [Example 20, N-[4-(N-hydroxcarbamoly)phenyl]-N-methyl-[3,4-dimethylphenyl]carboxyamide] | 0.421 | No irritation | 12300 | 68% | 12200 | No phototoxicity (lower value than 0.5, criterion value to be estimated as no phototoxicity) | 0 | 122% | 78% |
| CCCCc1ccc(C(=O)Nc2ccc(CC(=O)NO)cc2)cc1 [Example 29, N-[4-(N-hydroxycarbamoylmethyl)phenyl][4-butylphenyl]carboxyamide] | 0.234 | No irritation | 10600 | 77% | 18900 | No phototoxicity (lower value than 0.5, criterion value to be estimated as no phototoxicity) | 0 | 132% | 70% |
| Cc1ccc(NC(=O)c2ccc(C(=O)NO)cc2)cc1 [Example 35, [4-(N-hydroxycarbamoyl)phenyl]-N-[4-methylphenyl]carboxyamide] | 0.245 | No irritation | 11300 | 90% | 14500 | No phototoxicity (lower value than 0.5, criterion value to be estimated as no phototoxicity) | 0 | 111% | 71% |
| CCc1ccc(C(=O)N(C)c2ccc(C(=O)NO)cc2)cc1 [Example 15, N-[4-(N-hydroxycarbamoyl)phenyl]-N-methyl-[4-ethylphenyl]carboxyamide] | 0.789 | No irritation | 10400 | 79% | 14500 | No phototoxicity (lower value than 0.5, criterion value to be estimated as no phototoxicity) | 0 | 112% | 76% |
| Cc1cccc(C(=O)N(C)c2ccc(C(=O)NO)cc2)c1 [Example 14, N-[4-(N-hydroxycarbamoyl)phenyl]-N-methyl-[3-methylphenyl]carboxyamide] | 0.231 | No irritation | 10300 | 72% | 18000 | No phototoxicity (lower value than 0.5, criterion value to be estimated as no phototoxicity) | 0 | 115% | 75% |
